From patent US8389513B2, “2-amino-5,5-difluoro-5,6-dihydro-4H-[1,3]oxazin-4-yl)-phenyl]-amides” (Hoffmann-La Roche Inc., priority 2009, dated 2013)

What was measured:
BACE1 = target: T1, BACE1 (Homo sapiens, UniProt P56817); assay: Cellular Aβ-lowering assay (Aβ40 ELISA); assay type: cell-based; conditions: HEK293 cells stably expressing human APP695; Aβ40 in culture supernatant; read-out: BACE1 cell act. Aβ40 IC50
T1 construct: Human HEK293 cells which are stably transfected with a vector expressing a cDNA of the human APP wt gene (APP695); endogenous in cells; host or cells: HEK293 stably transfected with human APP695 wt
T1 sequence (P56817 46-501): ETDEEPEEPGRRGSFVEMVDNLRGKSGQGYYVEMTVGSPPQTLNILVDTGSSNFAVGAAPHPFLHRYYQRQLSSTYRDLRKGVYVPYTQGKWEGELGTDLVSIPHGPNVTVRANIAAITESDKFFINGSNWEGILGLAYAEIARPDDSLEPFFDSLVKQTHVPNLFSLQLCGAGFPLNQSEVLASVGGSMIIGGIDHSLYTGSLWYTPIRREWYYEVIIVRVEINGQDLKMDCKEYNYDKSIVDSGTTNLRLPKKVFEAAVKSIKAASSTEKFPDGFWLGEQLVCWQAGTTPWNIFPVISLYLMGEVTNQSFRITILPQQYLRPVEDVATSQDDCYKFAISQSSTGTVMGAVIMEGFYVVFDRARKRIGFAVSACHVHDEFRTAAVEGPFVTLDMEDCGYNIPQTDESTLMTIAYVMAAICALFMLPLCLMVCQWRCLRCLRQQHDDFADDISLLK
Outline: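 Aβ40 in supernatant measured by sandwich ELISA (TMB, 450 nm) and quantified against a pure Aβ peptide standard curve.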

hERG channel = target: T2, hERG channel (Homo sapiens, UniProt Q12809); assay: PatchXpress hERG inhibition assay; assay type: cell-based; conditions: % inhibition @ 1 μM
T2 construct: expressed in transfected cells; host or cells: CHO
T2 sequence (Q12809 whole entry): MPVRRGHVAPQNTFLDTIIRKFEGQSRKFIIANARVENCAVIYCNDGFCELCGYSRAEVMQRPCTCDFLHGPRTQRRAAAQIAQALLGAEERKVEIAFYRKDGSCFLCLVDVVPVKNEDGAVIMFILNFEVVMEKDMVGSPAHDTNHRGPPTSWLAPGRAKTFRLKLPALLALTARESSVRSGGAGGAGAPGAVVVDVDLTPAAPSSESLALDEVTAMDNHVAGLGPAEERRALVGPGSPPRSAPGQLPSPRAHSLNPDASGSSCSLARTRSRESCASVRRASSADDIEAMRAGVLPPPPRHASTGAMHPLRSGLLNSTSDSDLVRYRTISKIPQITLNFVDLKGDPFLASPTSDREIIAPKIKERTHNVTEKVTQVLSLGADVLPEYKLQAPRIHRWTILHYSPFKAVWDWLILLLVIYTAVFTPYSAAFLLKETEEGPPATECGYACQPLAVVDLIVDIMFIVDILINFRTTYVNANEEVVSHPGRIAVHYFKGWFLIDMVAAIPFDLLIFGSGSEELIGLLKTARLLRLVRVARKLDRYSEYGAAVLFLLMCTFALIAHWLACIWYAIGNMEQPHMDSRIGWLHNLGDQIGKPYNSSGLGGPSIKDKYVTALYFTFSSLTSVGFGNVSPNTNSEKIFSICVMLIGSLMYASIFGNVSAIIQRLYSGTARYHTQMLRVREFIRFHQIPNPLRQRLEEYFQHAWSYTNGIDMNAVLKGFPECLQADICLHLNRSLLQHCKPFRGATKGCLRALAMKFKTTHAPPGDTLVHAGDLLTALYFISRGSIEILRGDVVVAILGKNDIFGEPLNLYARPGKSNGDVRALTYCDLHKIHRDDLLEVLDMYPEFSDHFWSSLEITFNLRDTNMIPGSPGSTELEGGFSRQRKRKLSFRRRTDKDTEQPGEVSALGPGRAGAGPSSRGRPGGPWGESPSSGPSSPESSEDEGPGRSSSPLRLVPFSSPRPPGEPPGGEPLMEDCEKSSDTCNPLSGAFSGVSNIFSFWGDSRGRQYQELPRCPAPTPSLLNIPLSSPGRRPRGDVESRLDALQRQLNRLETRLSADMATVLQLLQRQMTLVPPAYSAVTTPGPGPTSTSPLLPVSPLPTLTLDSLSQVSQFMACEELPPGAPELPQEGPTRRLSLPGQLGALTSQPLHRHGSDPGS
From the text: PatchXpress hERG Inhibition Assay
For patch clamp electrophysiology, the external buffer contained (in mM): 150 NaCl, 10 Hepes, 4 KCl, 1.2 CaCl2, 1 MgCl2, pH 7.4 adjusted with […] and the internal recording solution contained (in mM): 140 KCl, 6 EGTA, 5 Hepes, MgCl2, 5 ATP-Na2, pH 7.2 adjusted with KOH. Once the cell was loaded in the recording chamber and formed a giga ohm seal with the planar glass electrodes (Sealchip™), a whole-cell configuration was achieved by rupturing the cell membrane. The membrane potential was then clamped at −80 mV and the hERG channel activated by a 1-second depolarizing pulse delivered at 0.1 Hz, the hERG current was measured during the 500 ms-repolarizing pulse to −40 mV. […] The inhibition of hERG current at each concentration was normalized to that recorded in the vehicle control, and fitted with Hill equation to calculate IC20 and/or IC50.

P-gP = P-gP (Homo sapiens, UniProt P08183); assay: P-gP human efflux ratio; assay type: in vitro ADME; design: key: A = not or weak substrate
Chain of P-gP (P08183 whole entry): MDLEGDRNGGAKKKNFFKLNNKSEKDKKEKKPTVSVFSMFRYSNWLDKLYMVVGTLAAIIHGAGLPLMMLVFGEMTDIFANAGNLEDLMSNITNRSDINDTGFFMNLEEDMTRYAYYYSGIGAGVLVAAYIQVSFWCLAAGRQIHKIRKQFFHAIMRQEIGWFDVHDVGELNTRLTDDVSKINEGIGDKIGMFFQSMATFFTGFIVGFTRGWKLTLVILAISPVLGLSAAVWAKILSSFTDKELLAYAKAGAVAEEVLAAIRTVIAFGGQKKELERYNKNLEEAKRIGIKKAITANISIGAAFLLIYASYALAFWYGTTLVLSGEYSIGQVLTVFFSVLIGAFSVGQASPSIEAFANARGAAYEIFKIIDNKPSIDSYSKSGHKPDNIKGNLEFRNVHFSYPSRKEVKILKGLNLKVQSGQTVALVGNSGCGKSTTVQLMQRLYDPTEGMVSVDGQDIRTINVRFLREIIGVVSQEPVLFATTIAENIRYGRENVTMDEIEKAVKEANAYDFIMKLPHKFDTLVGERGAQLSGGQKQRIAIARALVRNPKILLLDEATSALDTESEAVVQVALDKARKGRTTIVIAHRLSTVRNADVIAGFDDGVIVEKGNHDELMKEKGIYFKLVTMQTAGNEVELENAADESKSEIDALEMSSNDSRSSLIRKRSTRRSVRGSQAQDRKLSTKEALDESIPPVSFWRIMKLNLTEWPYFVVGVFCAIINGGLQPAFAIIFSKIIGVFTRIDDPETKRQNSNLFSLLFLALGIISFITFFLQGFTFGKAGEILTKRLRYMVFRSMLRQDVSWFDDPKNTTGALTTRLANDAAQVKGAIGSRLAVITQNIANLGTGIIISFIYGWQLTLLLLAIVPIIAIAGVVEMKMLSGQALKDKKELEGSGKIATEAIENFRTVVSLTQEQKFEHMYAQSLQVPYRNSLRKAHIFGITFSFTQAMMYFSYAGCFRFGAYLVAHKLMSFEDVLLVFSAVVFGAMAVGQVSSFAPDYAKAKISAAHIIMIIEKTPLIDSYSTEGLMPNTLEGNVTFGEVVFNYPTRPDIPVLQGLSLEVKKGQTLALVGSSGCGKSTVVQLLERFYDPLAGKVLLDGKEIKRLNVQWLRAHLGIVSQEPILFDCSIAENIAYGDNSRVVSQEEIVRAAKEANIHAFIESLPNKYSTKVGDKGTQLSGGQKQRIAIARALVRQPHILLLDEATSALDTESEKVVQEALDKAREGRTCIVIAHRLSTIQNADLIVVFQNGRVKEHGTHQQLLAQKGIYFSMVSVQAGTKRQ

[1] = GSH human adduct formation in vitro; assay type: in vitro ADME; design: key: NF = in vitro no significant adduct formation relative to control; conditions: relative to control

SMILES	IC50 (BACE1) [nM]	P-gP human, efflux ratio: substrate category (P-gP)	GSH human, adduct formation [1]	hERG (hERG channel)
C[C@]1(c2cc(NC(=O)c3ncc(Cl)cc3Cl)ccc2F)N=C(N)OCC1(F)F [Example 8, 3,5-Dichloro-pyridine-2-carboxylic acid [3-((R)-2-amino-5,5-difluoro-4-methyl-5,6-dihydro-4H-[1,3]oxazin-4-yl)-4-fluoro-phenyl]-amide]	15	–	–	A (A = less than 26% inhibition @ 1 μM)
C[C@]1(c2cc(NC(=O)c3ncc(C(F)(F)F)cc3Cl)ccc2F)N=C(N)OCC1(F)F [Example 5, 3-Chloro-5-trifluoromethyl-pyridine-2-carboxylic acid [3-((R)-2-amino-5,5-difluoro-4-methyl-5,6-dihydro-4H-[1,3]oxazin-4-yl)-4-fluoro-phenyl]-amide]	43	A	NF	A (A = less than 26% inhibition @ 1 μM)
CC1(C)OC(N)=N[C@](C)(c2cc(NC(=O)c3ncc(C(F)(F)F)cc3Cl)ccc2F)C1(F)F [Example 20, 3-Chloro-5-trifluoromethyl-pyridine-2-carboxylic acid [3-((R)-2-amino-5,5-difluoro-4,6,6-trimethyl-5,6-dihydro-4H-[1,3]oxazin-4-yl)-4-fluoro-phenyl]-amide]	50	A	–	A (A = less than 26% inhibition @ 1 μM)
C[C@]1(c2cc(NC(=O)c3ccc(Cl)cn3)ccc2F)N=C(N)OCC1(F)F [Example 1, 5-Chloro-pyridine-2-carboxylic acid [3-((R)-2-amino-5,5-difluoro-4-methyl-5,6-dihydro-4H-[1,3]oxazin-4-yl)-4-fluoro-phenyl]-amide]	–	–	–	A (A = less than 26% inhibition @ 1 μM)

The next lines start with results.

IC50 (BACE1) [nM]	P-gP human, efflux ratio: substrate category (P-gP)	GSH human, adduct formation [1]	SMILES	hERG (hERG channel)
7	A	–	CC1(C)OC(N)=N[C@](C)(c2cc(NC(=O)c3ccc(C#N)cn3)ccc2F)C1(F)F [Example 21, 5-Cyano-pyridine-2-carboxylic acid [3-((R)-2-amino-5,5-difluoro-4,6,6-trimethyl-5,6-dihydro-4H-[1,3]oxazin-4-yl)-4-fluoro-phenyl]-amide]	–
7	–	–	CC1(C)OC(N)=N[C@](C)(c2cc(NC(=O)c3ncc(C#N)cc3Cl)ccc2F)C1(F)F [Example 22, 3-Chloro-5-cyano-pyridine-2-carboxylic acid [3-((R)-2-amino-5,5-difluoro-4,6,6-trimethyl-5,6-dihydro-4H-[1,3]oxazin-4-yl)-4-fluoro-phenyl]-amide]	–
